# Key:
# Test in all cases: NCI60 cell line screen (SRB)
# Assay type in all cases: cell-based, human
# NCI-H460 = settings: NCI-H460, Non-Small Cell Lung Cancer, 48 h
# Protocol: (§1) This panel implements the NCI60 cell line screen, including leukemia, non-small cell lung cancer, colon cancer, central nervous system cancer, melanoma, ovarian cancer, renal cancer, prostate cancer and breast cancer. The cell lines tested are specified in Table 3.
# (§2) Generally, the human tumor cell lines of the cancer screening panel are grown in RPMI 1640 medium containing 5% fetal bovine serum and 2 mM L-glutamine. For a typical screening experiment, cells are inoculated into 96 well microtiter plates in 100 μL at plating densities ranging from 5,000 to 40,000 cells/well depending on the doubling time of individual cell lines. After cell inoculation, the microtiter plates are incubated at 37° C., 5% CO2, 95% air and 100% relative humidity for 24 h prior to addition of experimental drugs. After 24 h, two plates of each cell line are fixed in situ with TCA, to represent a measurement of the cell population for each cell line at the time of drug addition (Tz). Experimental drugs are solubilized in dimethyl sulfoxide at 400-fold the desired final maximum test concentration and stored frozen prior to use. At the time of drug addition, an aliquot of frozen concentrate is thawed and diluted to twice the desired final maximum test concentration with complete medium containing 50 μg/ml gentamicin. Additional four, 10-fold or ½ log serial dilutions are made to provide a total of five drug concentrations plus control. Aliquots of 100 μl of these different drug dilutions are added to the appropriate microtiter wells already containing 100 μl of medium, resulting in the required final drug concentrations.
# (§3) Following drug addition, the plates are incubated for an additional 48 h at 37° C., 5% CO2, 95% air, and 100% relative humidity. For adherent cells, the assay is terminated by the addition of cold TCA. Cells are fixed in situ by the gentle addition of 50 μl of cold 50% (w/v) TCA (final concentration, 10% TCA) and incubated for 60 minutes at 4° C. The supernatant is discarded, and the plates are washed five times with tap water and air dried. Sulforhodamine B (SRB) solution (100 μl) at 0.4% (w/v) in 1% acetic acid is added to each well, and plates are incubated for 10 minutes at room temperature. After staining, unbound dye is removed by washing five times with 1% acetic acid and the plates are air dried. Bound stain is subsequently solubilized with 10 mM trizma base, and the absorbance is read on an automated plate reader at a wavelength of 515 nm. For suspension cells, the methodology is the same except that the assay is terminated by fixing settled cells at the bottom of the wells by gently adding 50 μl of 80% TCA (final concentration, 16% TCA). Using the seven absorbance measurements (time zero, Tz, control growth, (control), and test growth in the presence of drug at the five concentration levels (Ti)), the percentage growth is calculated at each of the drug concentrations levels. Percentage growth inhibition is calculated as:
# (§4) [(Ti−Tz)/(C−Tz)]×100 for concentrations for which Ti>/=Tz
# (§5) [(Ti−Tz)/Tz]×100 for concentrations for which Ti<Tz.
# HCT-116 = settings: HCT-116, Colon Cancer, 48 h
# Protocol: as §1, §2, §3, §4, §5
# MDA-MB-231/ATCC = settings: Breast Cancer, 48 h
# Protocol: as §1, §2, §3, §4, §5
# CAKI-1 = settings: CAKI-1, Renal Cancer, 48 h
# Protocol: as §1, §2, §3, §4, §5
# SNB-19 = settings: SNB-19, CNS Cancer, 48 h
# Protocol: as §1, §2, §3, §4, §5
# A549/ATCC = settings: Non-Small Cell Lung Cancer, 48 h
# Protocol: as §1, §2, §3, §4, §5
# UACC-62 = settings: UACC-62, Melanoma, 48 h
# Protocol: as §1, §2, §3, §4, §5
# ACHN = settings: Renal Cancer, 48 h
# Protocol: as §1, §2, §3, §4, §5
# OVCAR4 = settings: OVCAR4, Ovarian Cancer, 48 h
# Protocol: as §1, §2, §3, §4, §5
# SF-539 = settings: SF-539, CNS Cancer, 48 h
# Protocol: as §1, §2, §3, §4, §5
# U251 = settings: U251, CNS Cancer, 48 h
# Protocol: as §1, §2, §3, §4, §5
# OVCAR3 = settings: OVCAR3, Ovarian Cancer, 48 h
# Protocol: as §1, §2, §3, §4, §5
# NCI/ADR-RES = settings: Breast Cancer, 48 h
# Protocol: as §1, §2, §3, §4, §5
# COLO 205 = settings: COLO 205, Colon Cancer, 48 h
# Protocol: as §1, §2, §3, §4, §5
# MCF-7 = settings: MCF-7, Breast Cancer, 48 h
# Protocol: as §1, §2, §3, §4, §5
# SK-OV-3 = settings: SK-OV-3, Ovarian Cancer, 48 h
# Protocol: as §1, §2, §3, §4, §5
# UO-31 = settings: UO-31, Renal Cancer, 48 h
# Protocol: as §1, §2, §3, §4, §5
# OVCAR5 = settings: OVCAR5, Ovarian Cancer, 48 h
# Protocol: as §1, §2, §3, §4, §5
# SK-MEL-2 = settings: SK-MEL-2, Melanoma, 48 h
# Protocol: as §1, §2, §3, §4, §5
# HCC-2998 = settings: HCC-2998, Colon Cancer, 48 h
# Protocol: as §1, §2, §3, §4, §5
# EKVX = settings: Non-Small Cell Lung Cancer, 48 h
# Protocol: as §1, §2, §3, §4, §5
# 786-0 = settings: 786-0, Renal Cancer, 48 h
# Protocol: as §1, §2, §3, §4, §5
# IGROV1 = settings: IGROV1, Ovarian Cancer, 48 h
# Protocol: as §1, §2, §3, §4, §5
# RPMO-8226 = settings: RPMO-8226, Leukemia, 48 h
# Protocol: as §1, §2, §3, §4, §5
# NCI-H226 = settings: NCI-H226, Non-Small Cell Lung Cancer, 48 h
# Protocol: as §1, §2, §3, §4, §5
structure (smiles),measurement,setting,value
CNC1=CC2=NCCc3c[nH]c(c32)C1=O [Compound 4a],GI50,NCI-H460,2160 nM
same,GI50,HCT-116,2940 nM
same,GI50,MDA-MB-231/ATCC,3130 nM
same,GI50,CAKI-1,1950 nM
same,GI50,SNB-19,3430 nM
same,GI50,A549/ATCC,2780 nM
same,GI50,UACC-62,2490 nM
same,GI50,ACHN,13100 nM
same,GI50,OVCAR4,1080 nM
same,GI50,SF-539,2390 nM
same,GI50,U251,4200 nM
same,GI50,OVCAR3,6300 nM
same,GI50,NCI/ADR-RES,9330 nM
same,GI50,COLO 205,1750 nM
same,GI50,MCF-7,1520 nM
same,GI50,SK-OV-3,18700 nM
same,GI50,UO-31,14600 nM
same,GI50,OVCAR5,17300 nM
same,GI50,SK-MEL-2,1670 nM
same,GI50,HCC-2998,4910 nM
same,GI50,EKVX,2200 nM
same,GI50,786-0,10500 nM
same,GI50,IGROV1,2900 nM
same,GI50,RPMO-8226,5990 nM
same,GI50,NCI-H226,11100 nM
O=C1C(NCc2ccccc2)=CC2=NCCc3c[nH]c1c32 [Compound 4c],GI50,NCI-H460,1510 nM
same,GI50,HCT-116,306 nM
same,GI50,MDA-MB-231/ATCC,439 nM
same,GI50,CAKI-1,298 nM
same,GI50,SNB-19,1960 nM
same,GI50,A549/ATCC,2140 nM
same,GI50,UACC-62,1820 nM
same,GI50,ACHN,2800 nM
same,GI50,OVCAR4,624 nM
same,GI50,SF-539,1910 nM
same,GI50,U251,2660 nM
same,GI50,OVCAR3,2580 nM
same,GI50,NCI/ADR-RES,3510 nM
same,GI50,COLO 205,378 nM
same,GI50,MCF-7,61 nM
same,GI50,SK-OV-3,7010 nM
same,GI50,UO-31,2630 nM
same,GI50,OVCAR5,2670 nM
same,GI50,SK-MEL-2,5200 nM
same,GI50,HCC-2998,2610 nM
same,GI50,EKVX,271 nM
same,GI50,786-0,3220 nM
same,GI50,IGROV1,793 nM
same,GI50,RPMO-8226,1360 nM
same,GI50,NCI-H226,5450 nM
O=C(O)C(F)(F)F.O=C1C(NCCc2ccc3c(c2)OCO3)=CC2=NCCc3c[nH]c1c32 [Compound 6],GI50,NCI-H460; Homo sapiens,1010 nM
same,GI50,HCT-116; Homo sapiens,2410 nM
same,GI50,MDA-MB-231/ATCC; Homo sapiens,2320 nM
same,GI50,CAKI-1; Homo sapiens,1770 nM
same,GI50,SNB-19; Homo sapiens,3290 nM
same,GI50,UACC-62; Homo sapiens,2320 nM
same,GI50,ACHN; Homo sapiens,3250 nM
same,GI50,"OVCAR4; Homo sapiens, OVCAR-4",971 nM
same,GI50,SF-539; Homo sapiens,2210 nM
same,GI50,"U251; Homo sapiens, U-251",3050 nM
same,GI50,"OVCAR3; Homo sapiens, OVCAR-3",2020 nM
same,GI50,NCI/ADR-RES; Homo sapiens,1760 nM
same,GI50,COLO 205; Homo sapiens,1020 nM
same,GI50,"MCF-7; Homo sapiens, MCF7",1210 nM
same,GI50,SK-OV-3; Homo sapiens,9700 nM
same,GI50,UO-31; Homo sapiens,5840 nM
same,GI50,"OVCAR5; Homo sapiens, OVCAR-5",2720 nM
same,GI50,SK-MEL-2; Homo sapiens,5820 nM
same,GI50,HCC-2998; Homo sapiens,1560 nM
same,GI50,EKVX; Homo sapiens,1960 nM
same,GI50,786-0; Homo sapiens,3980 nM
same,GI50,"IGROV1; Homo sapiens, IGROV-1",2520 nM
same,GI50,NCI-H226; Homo sapiens,4380 nM
COc1ccc(CCNC2=CC3=NCCc4c[nH]c(c43)C2=O)cc1OC.O=C(O)C(F)(F)F [Compound 20],GI50,NCI-H460; Homo sapiens,1420 nM
same,GI50,HCT-116; Homo sapiens,2400 nM
same,GI50,MDA-MB-231/ATCC; Homo sapiens,3210 nM
same,GI50,CAKI-1; Homo sapiens,2670 nM
same,GI50,SNB-19; Homo sapiens,3260 nM
same,GI50,A549/ATCC; Homo sapiens,2720 nM
same,GI50,UACC-62; Homo sapiens,2170 nM
same,GI50,ACHN; Homo sapiens,4210 nM
same,GI50,"OVCAR4; Homo sapiens, OVCAR-4",1160 nM
same,GI50,SF-539; Homo sapiens,3280 nM
same,GI50,"U251; Homo sapiens, U-251",3440 nM
same,GI50,"OVCAR3; Homo sapiens, OVCAR-3",1610 nM
same,GI50,NCI/ADR-RES; Homo sapiens,12400 nM
same,GI50,COLO 205; Homo sapiens,1390 nM
same,GI50,"MCF-7; Homo sapiens, MCF7",2610 nM
same,GI50,SK-OV-3; Homo sapiens,14600 nM
same,GI50,UO-31; Homo sapiens,7110 nM
same,GI50,"OVCAR5; Homo sapiens, OVCAR-5",5140 nM
same,GI50,SK-MEL-2; Homo sapiens,730 nM
same,GI50,HCC-2998; Homo sapiens,2350 nM
same,GI50,EKVX; Homo sapiens,3080 nM
same,GI50,786-0; Homo sapiens,5430 nM
same,GI50,"IGROV1; Homo sapiens, IGROV-1",4240 nM
same,GI50,NCI-H226; Homo sapiens,1060 nM
O=C(O)C(F)(F)F.O=C1C(NCc2ccc(F)cc2)=CC2=NCCc3c[nH]c1c32 [Compound 28],GI50,NCI-H460; Homo sapiens,816 nM
same,GI50,HCT-116; Homo sapiens,715 nM
same,GI50,MDA-MB-231/ATCC; Homo sapiens,725 nM
same,GI50,CAKI-1; Homo sapiens,329 nM
same,GI50,SNB-19; Homo sapiens,1790 nM
same,GI50,A549/ATCC; Homo sapiens,1440 nM
same,GI50,UACC-62; Homo sapiens,1560 nM
same,GI50,ACHN; Homo sapiens,2040 nM
same,GI50,"OVCAR4; Homo sapiens, OVCAR-4",1090 nM
same,GI50,SF-539; Homo sapiens,1740 nM
same,GI50,"U251; Homo sapiens, U-251",1990 nM
same,GI50,"OVCAR3; Homo sapiens, OVCAR-3",2230 nM
same,GI50,NCI/ADR-RES; Homo sapiens,3110 nM
same,GI50,COLO 205; Homo sapiens,365 nM
same,GI50,"MCF-7; Homo sapiens, MCF7",160 nM
same,GI50,SK-OV-3; Homo sapiens,3150 nM
same,GI50,UO-31; Homo sapiens,2590 nM
same,GI50,"OVCAR5; Homo sapiens, OVCAR-5",2370 nM
same,GI50,SK-MEL-2; Homo sapiens,4530 nM
same,GI50,HCC-2998; Homo sapiens,2700 nM
same,GI50,EKVX; Homo sapiens,453 nM
same,GI50,786-0; Homo sapiens,3450 nM
same,GI50,"IGROV1; Homo sapiens, IGROV-1",1430 nM
same,GI50,RPMO-8226; Homo sapiens,559 nM
same,GI50,NCI-H226; Homo sapiens,2340 nM

# — US20100144779A1, “Marine Alkalod Makaluvamines and Derivatives Thereof” (THE UAB RESEARCH FOUNDATION, priority 2007, published 2010)
